Laboratory results reported in patent publication US10188695B2, “Calcineurin inhibitors for use in the treatment of lesional vestibular disorders” (Institut National De La Santé Et De La Recherche Médicale, priority 2012, dated 2019).

System: excitotoxically induced lasting vestibular deficits
Experiment: Kainic acid excitotoxic vestibular lesion in rats, spontaneous nystagmus by infra-red videonystagmography (FK-506 treatment)
Format: in vivo, rat
Conditions: t=24 h
Experimental: Two inverted 3 mm bolts partially encased in dental acrylic were surgically fixed to the skull of female Long-Evans rats under deep ketamine-xylazine anesthesia using self-tapping surgical screws and cyanoacrylate. Each animal was allowed to recover for 1 week before experiencing 4 training sessions with head fixation (5-10 min) of increasing duration in the week preceding the experiments.
Under visual control using a surgical microscope, each rat received transtympanic injections of 50 μL 15 mM kainic acid in physiological serum with 10 mg/mL benzyl alcohol at t=0 h and 25 μL 15 mM kanic acid in physiological serum with 10 mg/mL benzyl alcohol at t=2 h.
At t=1 h the behaviorally associated vestibular deficits of each transtympanically injected animal was determined using 5 classical criteria each scored on a 0-4 scale: Circling, head-bobbing, degree of head-tilt, tail-hanging reflex deficit and air-righting reflex deficit. […]
Spontaneous eye-movements were recorded at t=1 h and t=24 h in the dark using an ISCAN ETL-200 infra-red videooculography system under head-fixed conditions. […]
The spontaneous nystagmus frequency in videooculography traces recorded at t=1 h (pre-treatment) and t=24 h (chronic deficit) was determined using custom routines written in MatLab R2011b (The Mathworks, Natick, Mass.). […]

C=CC[C@@H]1/C=C(\C)C[C@H](C)C[C@H](OC)[C@H]2O[C@@](O)(C(=O)C(=O)N3CCCC[C@H]3C(=O)O[C@H](/C(C)=C/[C@@H]3CC[C@@H](O)[C@H](OC)C3)[C@H](C)[C@@H](O)CC1=O)[C@H](C)C[C@@H]2OC [FK-506, tacrolimus]
normalized chronic spontaneous nystagmus frequency (normalized to group mean at t=1 h, single i.p. injection 2.5 mg/kg at t=1 h, Long-Evans rats, in the dark): 26.9±11.8% | reduction of lasting vestibular deficits (spontaneous nystagmus in the dark) vs sham (single i.p. injection 2.5 mg/kg, p=0.014): 43%
